Read-outs that look alike come from different tables or passages of the source.

DC50 and Dmax data for eleven compounds are collected here from patent publication US11427548B2 (Arvinas Operations, Inc., priority 2015, dated 2022).

This experiment deals with T1, Androgen Receptor (Homo sapiens, UniProt P10275).
T1 construct: endogenous in cells; host or cells: VCaP cells
T1 sequence (P10275 1-920): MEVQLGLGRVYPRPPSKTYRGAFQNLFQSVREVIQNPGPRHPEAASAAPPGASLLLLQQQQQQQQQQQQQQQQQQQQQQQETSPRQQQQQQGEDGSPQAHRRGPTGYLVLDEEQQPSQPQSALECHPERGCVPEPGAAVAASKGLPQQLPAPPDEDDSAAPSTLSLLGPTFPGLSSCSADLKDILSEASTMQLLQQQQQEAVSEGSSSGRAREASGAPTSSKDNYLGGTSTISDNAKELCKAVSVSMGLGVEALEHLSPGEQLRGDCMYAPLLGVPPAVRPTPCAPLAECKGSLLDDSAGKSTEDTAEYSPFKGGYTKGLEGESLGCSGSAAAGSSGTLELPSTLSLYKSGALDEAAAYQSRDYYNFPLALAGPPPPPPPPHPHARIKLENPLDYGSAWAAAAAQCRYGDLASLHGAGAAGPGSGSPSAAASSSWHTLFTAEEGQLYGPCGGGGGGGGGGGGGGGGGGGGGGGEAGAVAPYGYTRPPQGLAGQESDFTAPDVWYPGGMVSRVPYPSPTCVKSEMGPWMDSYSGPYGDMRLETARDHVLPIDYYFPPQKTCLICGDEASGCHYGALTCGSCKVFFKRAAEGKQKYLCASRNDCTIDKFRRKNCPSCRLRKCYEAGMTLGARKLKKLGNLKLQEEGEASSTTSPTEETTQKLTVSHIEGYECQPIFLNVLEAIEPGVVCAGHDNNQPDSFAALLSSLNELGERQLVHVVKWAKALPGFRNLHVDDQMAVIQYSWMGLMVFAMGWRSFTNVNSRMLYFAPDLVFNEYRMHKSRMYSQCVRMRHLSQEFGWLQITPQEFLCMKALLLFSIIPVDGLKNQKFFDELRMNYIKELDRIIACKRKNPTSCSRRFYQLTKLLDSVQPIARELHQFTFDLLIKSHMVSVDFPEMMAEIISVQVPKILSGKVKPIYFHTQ
As to the kind of experiment: Androgen Receptor ELISA assay (PathScan AR ELISA) in VCaP cells: AR degradation, Dmax and DC50. It counts as cell-based. A digest of the protocol:
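VCaP cells, 30,000/well, grown ≥3 days in phenol red-free RPMI with 5% charcoal-stripped FBS; compound added in 0.1% DMSO with 0.1 nM R1881, 7 half-log doses, 24 h. Lysate AR quantified by PathScan sandwich ELISA, HRP/TMB read at 450 nm, giving DC50 and Dmax.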

The mark [1] stands for this setting: VCaP cells; Table 36; read-out: VCaP DC50.
Setting [2] is: VCaP, VCaP cells; Table 36; read-out: VCaP Dmax (%).
Setting [3] is: read-out: VCaP DC50; VCaP cells; Table 36.

As usually defined, the DC50 is the concentration at which degradation of the target reaches its halfway point. One may read the Dmax as the greatest extent of degradation seen. Consider `Cc1ncsc1-c1ccc([C@H](C)NC(=O)[C@@H]2C[C@@H](O)CN2C(=O)[C@@H](NC(=O)CN2CCN(CCCc3ccc(C(=O)N[C@H]4C(C)(C)[C@H](Oc5ccc(C#N)c(Cl)c5)C4(C)C)cn3)CC2)C(C)(C)C)cc1` [Example 837, N-((1r,3r)-3-(3-chloro-4-cyanophenoxy)-2,2,4,4-tetramethylcyclobutyl)-6-(3-(4-(2-(((S)-1-((2S, 4R)-4-hydroxy-2-(((S)-1-(4-(4-methylthiazol-5-yl)phenyl)ethyl)carbamoyl)pyrrolidin-1-yl)-3,3-dimethyl-1-oxobutan-2-yl)amino)-2-oxoethyl)piperazin-1-yl)propyl) nicotinamide], for which, under setting [1], the DC50 is under 50 nM. For the same compound, the Dmax under setting [2] is over 71%.

Turning to `Cc1ncsc1-c1ccc([C@H](C)NC(=O)[C@@H]2C[C@@H](O)CN2C(=O)C(c2cc(CCN3CCN(c4ccc(C(=O)N[C@H]5C(C)(C)[C@H](Oc6ccc(C#N)c(Cl)c6)C5(C)C)cn4)CC3)no2)C(C)C)cc1` (stereo partly drawn) [Example 838, N-((1r,3r)-3-(3-chloro-4-cyanophenoxy)-2,2,4,4-tetramethylcyclobutyl)-6-(4-(2-(5-(1-((2S,4R)-4-hydroxy-2-(((S)-1-(4-(4-methylthiazol-5-yl)phenyl)ethyl)carbamoyl)pyrrolidin-1-yl)-3-methyl-1-oxobutan-2-yl)isoxazol-3-yl)ethyl)piperazin-1-yl) nicotinamide], the DC50 under setting [1] was under 50 nM. Besides, the Dmax under setting [2] lay within 51 to 70%.

For the compound `Cc1ncsc1-c1ccc([C@H](C)NC(=O)[C@@H]2C[C@@H](O)CN2C(=O)[C@@H](NC(=O)CN2C3CCC2CN(CCCc2ccc(C(=O)N[C@H]4C(C)(C)[C@H](Oc5ccc(C#N)c(Cl)c5)C4(C)C)cn2)C3)C(C)(C)C)cc1` [Example 839, N-((1r,3r)-3-(3-chloro-4-cyanophenoxy)-2,2,4,4-tetramethylcyclobutyl)-6-(3-(8-(2-(((S)-1-((2S, 4R)-4-hydroxy-2-(((S)-1-(4-(4-methylthiazol-5-yl)phenyl)ethyl)carbamoyl)pyrrolidin-1-yl)-3,3-dimethyl-1-oxobutan-2-yl)amino)-2-oxoethyl)-3,8-diazabicyclo[3.2.1]octan-3-yl)propyl) nicotinamide], the Dmax (VCaP, read-out: VCaP Dmax (%)) lay within 51 to 70%. Besides, the DC50 under setting [3] was under 50 nM.

Turning to `Cc1ncsc1-c1ccc([C@H](C)NC(=O)C2C[C@@H](O)CN2C(=O)C(NC(=O)CN2C3CCC2CN(CCCCc2ccc(C(=O)N[C@H]4C(C)(C)[C@H](Oc5ccc(C#N)c(Cl)c5)C4(C)C)cn2)C3)C(C)(C)C)cc1` (stereo partly drawn) [Example 840, N-((1r,3r)-3-(3-chloro-4-cyanophenoxy)-2,2,4,4-tetramethylcyclobutyl)-6-(4-(8-(2-(((S)-1-((2S, 4R)-4-hydroxy-2-(((S)-1-(4-(4-methylthiazol-5-yl)phenyl)ethyl)carbamoyl)pyrrolidin-1-yl)-3,3-dimethyl-1-oxobutan-2-yl)amino)-2-oxoethyl)-3,8-diazabicyclo[3.2.1]octan-3-yl)butyl) nicotinamide], the Dmax (VCaP, read-out: VCaP Dmax (%)) was over 71%. The DC50 under setting [3] was under 50 nM.

In the case of `Cc1ncsc1-c1ccc([C@H](CO)NC(=O)[C@@H]2C[C@@H](O)CN2C(=O)[C@@H](NC(=O)CN2CCN(CCC3CCN(c4ccc(C(=O)N[C@H]5C(C)(C)[C@H](Oc6ccc(C#N)c(Cl)c6)C5(C)C)cn4)C3)CC2)C(C)(C)C)cc1` (stereo partly drawn) [Example 841, N-((1r,3r)-3-(3-chloro-4-cyanophenoxy)-2,2,4,4-tetramethylcyclobutyl)-6-(3-(2-(4-(2-(((S)-1-((2S,4R)-4-hydroxy-2-(((R)-2-hydroxy-1-(4-(4-methylthiazol-5-yl)phenyl)ethyl)carbamoyl)pyrrolidin-1-yl)-3,3-dimethyl-1-oxobutan-2-yl)amino)-2-oxoethyl)piperazin-1-yl)ethyl)pyrrolidin-1-yl)nicotinamide], under setting [1], the DC50 was under 50 nM. The Dmax (VCaP, read-out: VCaP Dmax (%)) was over 71%.

As to `Cc1ncsc1-c1ccc([C@H](C)NC(=O)[C@@H]2C[C@@H](O)CN2C(=O)[C@@H](NC(=O)COC2CN(CCNc3ccc(C(=O)N[C@H]4C(C)(C)[C@H](Oc5ccc(C#N)c(Cl)c5)C4(C)C)cn3)C2)C(C)(C)C)cc1` [Example 842, N-((1r,3r)-3-(3-chloro-4-cyanophenoxy)-2,2,4,4-tetramethylcyclobutyl)-6-((2-(3-(2-(((S)-1-((2S,4R)-4-hydroxy-2-(((S)-1-(4-(4-methylthiazol-5-yl)phenyl)ethyl)carbamoyl)pyrrolidin-1-yl)-3,3-dimethyl-1-oxobutan-2-yl)amino)-2-oxoethoxy)azetidin-1-yl)ethyl)amino) nicotinamide], under setting [1], the DC50 was under 50 nM. In addition, under setting [2], the greatest degradation seen (Dmax) was in the range of 26 to 50%.

On to `Cc1ncsc1-c1ccc([C@H](C)NC(=O)C2C[C@@H](O)CN2C(=O)C(NC(=O)CN2CCN(CCN3CCN(c4ccc(C(=O)NC5C(C)(C)C(Oc6ccc(C#N)c(Cl)c6)C5(C)C)cn4)C[C@H]3CO)CC2)C(C)(C)C)cc1` (stereo partly drawn) [Example 843, N-((1r,3S)-3-(3-chloro-4-cyanophenoxy)-2,2,4,4-tetramethylcyclobutyl)-6-((S)-4-(2-(4-(2-(((S)-1-((2S,4R)-4-hydroxy-2-(((S)-1-(4-(4-methylthiazol-5-yl)phenyl)ethyl)carbamoyl)pyrrolidin-1-yl)-3,3-dimethyl-1-oxobutan-2-yl)amino)-2-oxoethyl)piperazin-1-yl)ethyl)-3-(hydroxymethyl)piperazin-1-yl) nicotinamide], for which the DC50 under setting [1] was under 50 nM. Also, the Dmax under setting [2] fell in the range of 51 to 70%.

For the compound `Cc1ncsc1-c1ccc([C@H](C)NC(=O)[C@@H]2C[C@@H](O)CN2C(=O)[C@@H](NC(=O)CO[C@H]2C[C@@H](N3CCN(c4ccc(C(=O)N[C@H]5C(C)(C)[C@H](Oc6ccc(C#N)c(Cl)c6)C5(C)C)cn4)CC3)C2)C(C)(C)C)cc1` [Example 845, N-((1r,3R)-3-(3-chloro-4-cyanophenoxy)-2,2,4,4-tetramethylcyclobutyl)-6-(4-((1R,3S)-3-(2-(((S)-1-((2S,4R)-4-hydroxy-2-(((S)-1-(4-(4-methylthiazol-5-yl)phenyl)ethyl)carbamoyl)pyrrolidin-1-yl)-3,3-dimethyl-1-oxobutan-2-yl)amino)-2-oxoethoxy)cyclobutyl)piperazin-1-yl)nicotinamide], the DC50 under setting [1] was under 50 nM. Besides, under setting [2], the Dmax was over 71%.

On to `Cc1ncsc1-c1ccc([C@H](C)NC(=O)[C@@H]2C[C@@H](O)CN2C(=O)[C@@H](NC(=O)COC2CC(N3CCN(c4ccc(C(=O)NC5C(C)(C)C(Oc6ccc(C#N)c(Cl)c6)C5(C)C)cn4)CC3)C2)C(C)(C)C)cc1` (stereo partly drawn) [Example 846, N-((1r,3R)-3-(3-chloro-4-cyanophenoxy)-2,2,4,4-tetramethylcyclobutyl)-6-(4-((1S,3R)-3-(2-(((S)-1-((2S,4R)-4-hydroxy-2-(((S)-1-(4-(4-methylthiazol-5-yl)phenyl)ethyl)carbamoyl)pyrrolidin-1-yl)-3,3-dimethyl-1-oxobutan-2-yl)amino)-2-oxoethoxy)cyclobutyl)piperazin-1-yl)nicotinamide], for which the DC50 under setting [1] is under 50 nM. Further, the Dmax under setting [2] was over 71%.

As for `Cc1ncsc1-c1ccc([C@H](CO)NC(=O)[C@@H]2C[C@@H](O)CN2C(=O)[C@@H](NC(=O)CN2CCC(CN3CCN(c4ccc(C(=O)N[C@H]5C(C)(C)[C@H](Oc6ccc(C#N)c(Cl)c6)C5(C)C)cn4)CC3)CC2)C(C)(C)C)cc1` [Example 847, N-((1r,3r)-3-(3-chloro-4-cyanophenoxy)-2,2,4,4-tetramethylcyclobutyl)-6-(4-((1-(2-(((S)-1-((2S,4R)-4-hydroxy-2-(((R)-2-hydroxy-1-(4-(4-methylthiazol-5-yl)phenyl)ethyl)carbamoyl)pyrrolidin-1-yl)-3,3-dimethyl-1-oxobutan-2-yl)amino)-2-oxoethyl)piperidin-4-yl)methyl)piperazin-1-yl)nicotinamide], the half-maximal degradation concentration (DC50) under setting [1] was under 50 nM. Also, the Dmax (VCaP, read-out: VCaP Dmax (%)) was over 71%.

`Cc1ncsc1-c1ccc([C@H](C)NC(=O)[C@@H]2CC(O)CN2C(=O)[C@H](C(C)C)N2Cc3cc(OCCN4CCN(c5ccc(C(=O)N[C@H]6C(C)(C)[C@H](Oc7ccc(C#N)c(Cl)c7)C6(C)C)cn5)CC4)ccc3C2=O)cc1` (stereo partly drawn) [Example 848, N-((1r,3r)-3-(3-chloro-4-cyanophenoxy)-2,2,4,4-tetramethylcyclobutyl)-6-(4-(2-((2-((S)-1-((2S, 4R)-4-hydroxy-2-(((S)-1-(4-(4-methylthiazol-5-yl)phenyl)ethyl)carbamoyl)pyrrolidin-1-yl)-3-methyl-1-oxobutan-2-yl)-1-oxoisoindolin-5-yl)oxy)ethyl)piperazin-1-yl)nicotinamide]: the DC50 under setting [1] was under 50 nM. In addition, the Dmax under setting [2] was over 71%.
